Reference: PMC6383948, “Evaluation of a class of isatinoids identified from a high-throughput screen of human kinase inhibitors as anti-Sleeping Sickness agents” (PLoS Neglected Tropical Diseases, 2019)
Marks after values point to notes of the source that are not given here.

What was measured:
[1] = Shake-flask octanol-water Log D7.4; assay type: physicochemical; settings: pH 7.4, octanol-water shake-flask
Experimental: Shake-flask octanol-water distribution coefficient at pH 7.4 (Log D7.4). The aqueous solution used is 10 mM sodium phosphate pH 7.4 buffer. The method has been validated for Log D7.4 ranging from -2 to 5.0.

[2] = Human plasma protein binding (equilibrium dialysis); assay type: in vitro ADME; settings: pH 7.4, read-out: PPB (converted)
Experimental: PPB is determined using equilibrium dialysis (RED device) to separate free from bound compound. The amount of compound in plasma (10 µM initial concentration) and in dialysis buffer (pH 7.4 phosphate buffer) is measured by LC-MS/MS after equilibration at 37 °C in a dialysis chamber. The fraction unbound (fu) is reported.

[3] = test system: S. mansoni adults and somules; test: S. mansoni phenotypic assay, adults and somules (severity score); assay type: cell-based, Schistosoma mansoni (NMRI isolate); settings: score 0-4; for Adult severity score (10 μM): adults; for Somule severity score (10 μM): somules
Experimental: Maintenance of the Schistosoma mansoni life cycle, preparation of somules (post-infective larvae) and adult worms (≥42-days-old), and co-incubation of these stages with test compounds were as described. An NMRI isolate of S. mansoni was used for all whole-organism screens.
Somules (40 units/well/96w round-bottomed plate) or adults (five paris/well/24w plate) were cultured in the presence of compounds at 10 µM and phenotypic changes observed as a function of time using an Zeiss Axiovert A1 inverted microscope (Table S4). A constrained nomenclature was used to describe the effects of compounds on parasites (changes in shape, motility and density). To generate a partially quantitative output for comparing drug effects, each descriptor was awarded a score of 1 and these were summed to a maximum score of 4 [7-10]: evidence of degeneracy or death was awarded the maximum score of 4. For adults specifically, damage to the tegument (outer surface) was also awarded a score of 4 based on the indication that damage to the patrasite’s surface is lethal in vivo [11]. Assays were performed twice and representative data are shown.

[4] = test system: MRC5-SV2 cell line; test: Cytotoxicity assay in MRC5 (resazurin, 48 h); assay type: cell-based, human; settings: MRC5 toxicity
Experimental: For dose-response experiments, compound plates were prepared for each analogue by serial 3-fold dilutions in 100% DMSO. Five concentration points (mammalian cytotoxicity) or ten concentration points (parasite growth inhibition), were made in 96-well transparent Nunclon plates. Pentamidine is routinely included in compound plates as internal quality control, and plates are stored sealed at -20 °C for no more than four weeks. Intermediate plates were made as described, adding 95 μL of DMEM complete media to 5 μL of compound per well setting a 5% DMSO amount. Log-phase MRC5 cells were removed from a T-75 TC flask using TrypLE® Express (Thermo®) and dispersed by gentle pipetting. Cell density was adjusted to working concentration in prewarmed DMEM medium: 25,000 cells in 90 μL of culture were plated in 96-well transparent Nunclon plates and let to settle for 24 h at 37 °C and 5% CO2. After settling incubation, 10 μL of fresh made intermediate plate were added per well: final maximal concentration for compounds was 50 μM in 0.5% DMSO per well. […] Fluorescence was read in an Infinite F200 plate reader (Tecan®) at 550 nm (excitation filter) and 590 nm (emission filter). A 4-parameter equation was used to fit the dose-response curves and determination of EC50 by SigmaPlot ® 13.0 software. Assays were performed in duplicate at least twice for positive compounds, to achieve a minimal n=3 per dose response.

[5] = test system: T. cruzi; test: β-D-Galactosidase transgenic T. cruzi assay (amastigote-infected L6 cells); assay type: cell-based, T. cruzi Tulahuen C4 strain; settings: Trypanosoma cruzi, 96 h, read-out: T. cruzi pEC50 (converted)
Experimental: The T. cruzi Tulahuen C4 strain, expressing the β-galactosidase gene (LacZ) and L6 rat skeletal muscle cells, used as host cells, were cultured in RPMI-1640 supplemented with 10% iFBS, 2 mM L-glutamine, 100 U/mL penicillin, and 100 μg/mL streptomycin at 37 °C and 5% CO2.
A Thermo Scientific Multidrop Combi dispenser (MTX Lab Systems, Vienna, VA) was used to dispense 90 μL of T. cruzi amastigote–infected L6 cell culture (4×10^3 infected L6 cells per well) into 96-well Corning assay plates (Corning Inc., Corning, NY) already containing 10 μL of the compounds to be screened and controls. The plates were incubated at 37 °C for 96 h. Then, 30 μL of 100 μM CPRG and 0.1% NP40 diluted in PBS were added to each well, and the plates were incubated for 4 h at 37 °C in the dark. Absorbance at 585 nm was measured in a Vmax kinetic microplate reader ([…]). Compound activities were normalized using the in-plate negative (benznidazole at 10 μg/mL) and positive (0.2% DMSO) growth controls.

[6] = test system: T. b. brucei; test: T. b. brucei growth inhibition EC50 assay (resazurin, 72 h); assay type: cell-based, Trypanosoma brucei brucei Lister 427; settings: 72 h, resazurin, error within ±0.20 (Table 2) or ±0.08 (Table 3) log units; for EC50: Trypanosoma brucei, read-out: T.b.b. pEC50 (converted)
Experimental: Mid-log phase growth T. b. brucei was diluted to a working cell density of 2,750 cells/mL and 90 μL/well dispensed into 96-well flat-bottom transparent assay plates (Nunc). Ten μL/well from intermediate plates were added. The final top concentration of compounds was 40 μM in 0.4% DMSO per well.
Assay plates were incubated for 72 h at 37°C and 5% CO2. Four hours prior to the end of the incubation, 20 μL of a 440 μM resazurin solution in prewarmed HMI-9 was added to each well and incubated for another 4 h. Fluorescence was then measured in an Infinite F200 plate reader (Tecan) at 550 nm (excitation filter) and 590 nm (emission filter). A 4-parameter equation was employed to fit the dose-response curves and determine of EC50 using the SigmaPlot 13.0 software. Assays were performed in duplicate at least twice, to achieve a minimal n = 3 per dose response.
Bloodstream Trypanosoma brucei brucei Lister 427 was cultured in Hirumi’s modified Iscove’s medium (HMI-9), supplemented with 10% heat-inactivated FBS, at 37 °C and 5% CO2 in T-25 vented flask (Corning®).
For dose-response experiments, compound plates were prepared for each analogue by serial 3-fold dilutions in 100% DMSO. Five concentration points (mammalian cytotoxicity) or ten concentration points (parasite growth inhibition), were made in 96-well transparent Nunclon plates. Pentamidine is routinely included in compound plates as internal quality control, and plates are stored sealed at -20 °C for no more than four weeks.

[7] = test system: L. donovani; test: EC50 in L. donovani (infected THP-1 macrophages, luciferase); assay type: cell-based, Leishmania donovani MHOM/ET/67/HU3; settings: Leishmania donovani, 72 h, read-out: L. donovani pEC50 (converted)
Experimental: Leishmania donovani MHOM/ET/67/HU3 cells with the luciferase gene integrated into the parasite genome[1] were grown at 28 °C in RPMI 1640-modified medium (Invitrogen) supplemented with 20% FBS with […] of hygromycin B.
The Human myelomonocytic cell line THP-1 was grown at 37 °C and 5% CO2 in RPMI-1640 supplemented with 10% iFBS, 2 mM […], 100 U/mL penicillin and […] streptomycin. 3 x 10^4 THP-1 cells per well in 96-well plates were differentiated to macrophages with 20 ng/mL of PMA treatment for 48 h followed by 24 h of culture in fresh medium.
Macrophage-differentiated THP-1 cells were infected at a macrophage/parasite ratio of 1/10 with stationary L. donovani promastigotes for 24 h at 35 °C and 5% CO2, and extracellular parasites were removed by washing with PBS. Infected cell cultures were then incubated with different compounds concentrations at 37 °C for 72 h. Luminescence was measured using the Promega kit luciferase assay system (Promega, Madison, WI). Assays were performed in duplicate at least twice, to achieve a minimal n=3 per dose response.

[8] = Aqueous pH 7.4 solubility; assay type: physicochemical; settings: aqueous buffer, thermodynamic from solid; pH 7.4 phosphate buffer, 25 °C, 20-24 h; read-out: Aq. Solubility
Experimental: Compounds are dried down from 10 mM DMSO solutions using centrifugal evaporation technique. Phosphate buffer (0.1 M pH 7.4) added and StirStix inserted in the glass vials, shaking is then performed at a constant temperature of 25 °C for 20-24 h. This step is followed by double centrifugation with a tip wash in between, to ensure that no residues of the dried compound are interfering. The solutions are diluted before analysis and quantification using LC/MS/MS is performed.

SMILES | MRC5 pTC50 [4] | T.b.b. pEC50 [6] | other results
COc1ccc(N/N=C2\C(=O)Nc3ccccc32)cc1 [NEU-2114, (Z)-3-(2-(4-Methoxyphenyl)hydrazono)indolin-2-one] | <4.3 | – | logD [1]: > 3.3; fraction unbound at 10 µM [2]: < 0.03; Adult severity score (10 μM) ([3]; 3h): 0; Adult severity score (10 μM) ([3]; 6h): 0; Adult severity score (10 μM) ([3]; 24h): 0; Adult severity score (10 μM) ([3]; 48h): 0; Somule severity score (10 μM) ([3]; 24h): 2; Somule severity score (10 μM) ([3]; 48h): 0; EC50 [5]: > 10 µM; EC50 [6]: 10 µM; EC50 [7]: > 10 µM; solubility [8]: < 7 µM
O=C1Nc2ccccc2/C1=N/Nc1cc(Cl)cc(Cl)c1 [NEU-2117, (Z)-3-(2-(3,5-Dichlorophenyl)hydrazono)indolin-2-one] | <4.3 | – | logD [1]: > 3.7; fraction unbound at 10 µM [2]: < 0.04; Adult severity score (10 μM) ([3]; 3h): 1; Adult severity score (10 μM) ([3]; 6h): 0; Adult severity score (10 μM) ([3]; 24h): 0; Adult severity score (10 μM) ([3]; 48h): 3; Somule severity score (10 μM) ([3]; 24h): 0; Somule severity score (10 μM) ([3]; 48h): 0; EC50 [5]: > 10 µM; EC50 [6]: > 39.8 µM; EC50 [7]: > 10 µM; solubility [8]: < 3 µM
NS(=O)(=O)c1ccc(N/N=C2\C(=O)Nc3ccc(Cl)cc32)cc1 [NEU-2319] | <5.0^b | 6.0 | –
CC(C)=Cc1cccc2c1/C(=N/Nc1ccc(S(=O)(=O)N(C)C)cc1)C(=O)N2 [NEU-4405, (Z)-N,N-Dimethyl-4-(2-(4-(2-methylprop-1-en-1-yl)-2-oxoindolin-3-ylidene)hydrazinyl)benzenesulfonamide] | <4.3 | – | EC50 [5]: > 20 µM; EC50 [6]: 5.01 µM; EC50 [7]: > 5.01 µM
CC(C)c1cc2c(c(Cl)c1O)/C(=N/Nc1ccc(S(N)(=O)=O)cc1)C(=O)N2 [NEU-5455] | <5.0^b | 6.4 | –
Cc1ccc2c3c(ccc2n1)NC(=O)/C3=N\Nc1ccc(S(N)(=O)=O)cc1 [NEU-5456] | <5.0^b | – | EC50 [6]: 0.0398 µM
NS(=O)(=O)c1ccc(NN=C2C(=O)Nc3cc4c(cc32)NCC4)cc1 [NEU-5459] | <5.0^b | – | EC50 [6]: 0.794 µM
NC(=O)c1cccc2c1/C(=N/Nc1ccc(S(N)(=O)=O)cc1)C(=O)N2 [NEU-5460] | <5.0^b | 6.2 | –
Cc1c(Cl)ccc2c1/C(=N/Nc1ccc(S(N)(=O)=O)cc1)C(=O)N2 [NEU-5464] | <5.0^b | 7.3 | –
Cc1cc2c(c(C)c1O)/C(=N/Nc1ccc(S(N)(=O)=O)cc1)C(=O)N2 [NEU-5469] | <5.0^b | 8.2 | –
CCc1ccc2c(c1)NC(=O)/C2=N\Nc1ccc(S(N)(=O)=O)cc1 [NEU-5470] | <5.0^b | 6.1 | –
Cc1ccc2c(c1C)/C(=N/Nc1ccc(S(N)(=O)=O)cc1)C(=O)N2 [NEU-5479] | <5.0^b | 6.9 | –
Cc1cc2c(c(Cl)c1O)/C(=N/Nc1ccc(S(N)(=O)=O)cc1)C(=O)N2 [NEU-5485] | <5.0^b | 7.1 | –
CC(C)Cc1cccc2c1/C(=N/Nc1ccc(S(N)(=O)=O)cc1)C(=O)N2 [NEU-5487] | <5.0^b | 7.4 | –
CCc1cccc2c1/C(=N/Nc1ccc(S(N)(=O)=O)cc1)C(=O)N2 [NEU-5489] | <5.0^b | 7.5 | –
CC(C)c1cccc2c1/C(=N/Nc1ccc(S(N)(=O)=O)cc1)C(=O)N2 [NEU-5491] | <5.0^b | 7.6 | –
NS(=O)(=O)c1ccc(N/N=C2\C(=O)Nc3cccc(CC4CCC4)c32)cc1 [NEU-5492] | <5.0^b | 6.9 | –
NS(=O)(=O)c1ccc(N/N=C2\C(=O)Nc3cccc(CCc4ccc(O)cc4)c32)cc1 [NEU-5493] | – | 6.0 | –
